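Test compounds were applied to cells in 96-well plates for 48 hours at 5 doses. TGI denotes the concentration required for complete inhibition of growth.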

Consider three compounds from PubChem BioAssay (NCI).

Among the test systems are KM20L2 colon; RXF-631 renal; M19-MEL melanoma; DMS 114 small cell lung; LXFL 529 NSCLC; HOP-18 NSCLC; SNB-78 CNS; DLD-1 colon.
Experiment in all cases: NCI-60 cell line screen, 48 h

Turning to `C=C1[C@@H]2CCC(C)(C)[C@H]1CCC(=O)[C@@H]2C(=O)OC`, the TGI in the assay on KM20L2 colon, with RXF-631 renal, in the assay on M19-MEL melanoma, with DMS 114 small cell lung and in the assay with LXFL 529 NSCLC was over 100 µM in each case.
As for `CSc1nnc2n1-c1ccccc1SCC2`, the TGI in the assay with KM20L2 colon, with M19-MEL melanoma, in the assay with HOP-18 NSCLC, with SNB-78 CNS, in the assay on DLD-1 colon and in the assay on DMS 114 small cell lung was over 100 µM each time. This compound also came in with a TGI with LXFL 529 NSCLC of over 100 µM.
In the case of `O=CN/C=C\c1cc(O)ccc1O`, the TGI in the assay on KM20L2 colon was over 62.4 µM; with M19-MEL melanoma, 40.2 µM; in the assay with HOP-18 NSCLC, 30.7 µM; in the assay on SNB-78 CNS, over 100 µM; with DLD-1 colon it was 31.6 µM; in the assay on DMS 114 small cell lung it was 52.3 µM. Also, in the assay with LXFL 529 NSCLC, the TGI was 22.8 µM.
